Patent US20190216772A1, “Antioxidant-Containing Food Composition for Use in Enhancing Antiviral Immunity in Companion Animals” (priority 2008, published 2019)

Tests used:
Type in all cases: in vivo, dog
[1] = system: CREBBP; assay: Whole blood gene expression (canine 2 Affymetrix genechip) in dogs fed lipoic acid food for 30 days; conditions: dogs fed control food containing 150 ppm alpha-lipoic acid for 30 days vs control food; whole blood RNA
Description: (§1) Twenty dogs were fed for 30 days. Ten were fed an AAFCO level control food and 10 other dogs were fed the AAFCO level control food containing 150 ppm alpha-lipoic acid. At the end of the end of the 30 days whole blood samples were collected from each dog in Paxgene tubes.
(§2) Total RNAs were isolated from whole blood samples using the PAXgene RNA isolation kit. All measurements were done with the canine 2 Affymetrix genechips. For statistical analysis, all measurements were normalized with RMA. All analysis was preformed using Partek. An ANOVA t-test was performed for genes that are differentially expressed between the control and test foods. (at least a 20% change in expression with a pvalue<0.05)
(§3) Differentially expressed genes were analyzed with the GeneGo pathway analysis software.

[2] = system: EIF2AK2; assay: as above; conditions: dogs fed control food containing 150 ppm alpha-lipoic acid for 30 days vs control food
Description: as §1, §2, §3

[3] = system: IFNAR2; assay: as above; conditions: dogs fed control food containing 150 ppm alpha-lipoic acid for 30 days vs control food; whole blood RNA
Description: as §1, §2, §3

[4] = system: IFNGR2; assay: as above; conditions: dogs fed control food containing 150 ppm alpha-lipoic acid for 30 days vs control food; whole blood RNA
Description: as §1, §2, §3

[5] = system: IFR9; assay: as above; conditions: dogs fed control food containing 150 ppm alpha-lipoic acid for 30 days vs control food; whole blood RNA
Description: as §1, §2, §3

[6] = system: JAK2; assay: as above; conditions: dogs fed control food containing 150 ppm alpha-lipoic acid for 30 days vs control food; whole blood RNA
Description: as §1, §2, §3

[7] = system: RNASEL; assay: as above; conditions: dogs fed control food containing 150 ppm alpha-lipoic acid for 30 days vs control food; whole blood RNA
Description: as §1, §2, §3

[8] = system: interferon mediated antiviral response; assay: GeneGo pathway analysis of differentially expressed genes in dogs fed lipoic acid; conditions: dogs fed lipoic acid for 30 days; 150 ppm in food
Description: as §1, §2, §3

## O=C(O)CCCCC1CCSS1 (stereo not drawn) [lipoic acid, alpha-lipoic acid]
[1]
  Fold Up-regulated, CREBBP (CREB-binding protein): 1.2 fold
[2]
  Fold Up-regulated, EIF2AK2 (Interferon-induced double stranded RNA-activated protein): 1.4 fold
[3]
  Fold Up-regulated, IFNAR2 (interferon-alpha/beta receptor beta chain precursor): 1.3 fold
[4]
  Fold Up-regulated, IFNGR2 (interferon-gamma receptor beta chain precursor): 1.2 fold
[5]
  Fold Up-regulated, IFR9 (interferon regulatory factor 9): 1.3 fold
[6]
  Fold Up-regulated, JAK2 (Tyrosine protein kinase JAK2): 1.4 fold
[7]
  Fold Up-regulated, RNASEL (2-5A-dependent ribonuclease): 1.5 fold
[8]
  interferon mediated antiviral response (pathway analysis of differentially expressed genes): exhibited an interferon mediated antiviral response
